According to patent US11319299B2, “Substituted carboxamides as inhibitors of WDR5 protein-protein binding” (PROPELLON THERAPEUTICS INC., priority 2016, dated 2022):

Target: WDR5 (Homo sapiens (Human), UniProt P61964)
Assay: Surface Plasmon Resonance (SPR) assay, KD and residence time
Format: binding
Conditions: surface plasmon resonance (SPR); read-out: WDR5 binding affinity (KD)

Row | Kd [nM] | Structure (SMILES)
1 | 23.5 | O=C(Nc1cc(-c2cnc(N3CCOCC3)nc2)c(F)cc1N1CCN(C2CC2)CC1)c1c[nH]c(=O)cc1C(F)(F)F [Example 561, N-[2-(4-cyclopropylpiperazin-1-yl)-4-fluoro-5-(2-morpholin-4-ylpyrimidin-5-yl)phenyl]-6-oxo-4-(trifluoromethyl)-1H-pyridine-3-carboxamide]
2 | 0.904 | C[C@@H]1CN(c2cc(F)c(-c3c[nH]c(=O)c(F)c3)cc2NC(=O)c2c[nH]c(=O)cc2C(F)(F)F)C[C@H](C)N1C [Example 562, N-[4-fluoro-5-(5-fluoro-6-oxo-1H-pyridin-3-yl)-2-[(3R,5S)-3,4,5-trimethylpiperazin-1-yl]phenyl]-6-oxo-4-(trifluoromethyl)-1H-pyridine-3-carboxamide]
3 | 3.32 | C[C@@H]1CN(c2cc(F)c(-c3cncc(NC(=O)OCc4ccccc4)c3)cc2NC(=O)c2c[nH]c(=O)cc2C(F)(F)F)C[C@H](C)N1C [Example 563, benzyl N-[5-[2-fluoro-5-[[6-oxo-4-(trifluoromethyl)-1H-pyridine-3-carbonyl]amino]-4-[(3R,5S)-3,4,5-trimethylpiperazin-1-yl]phenyl]pyridin-3-yl]carbamate]
4 | 1.52 | C[C@@H]1CN(c2cc(F)c(-c3cc(F)c(=O)n(C)c3)cc2NC(=O)c2c[nH]c(=O)cc2C(F)(F)F)C[C@H](C)N1C [Example 564, N-[4-fluoro-5-(5-fluoro-1-methyl-6-oxopyridin-3-yl)-2-[(3R,5S)-3,4,5-trimethylpiperazin-1-yl]phenyl]-6-oxo-4-(trifluoromethyl)-1H-pyridine-3-carboxamide]
5 | 0.943 | COc1ccc(C(=O)N2CC=C(c3cc(NC(=O)c4c[nH]c(=O)cc4C(F)(F)F)c(N4C[C@@H](C)N(C)[C@@H](C)C4)cc3F)CC2)cc1 [Example 565, N-[4-fluoro-5-[1-(4-methoxybenzoyl)-3,6-dihydro-2H-pyridin-4-yl]-2-[(3R,5S)-3,4,5-trimethylpiperazin-1-yl]phenyl]-6-oxo-4-(trifluoromethyl)-1H-pyridine-3-carboxamide]
6 | 0.896 | C[C@@H]1CN(c2cc(F)c(-c3cnc4c(c3)CC(=O)N4)cc2NC(=O)c2c[nH]c(=O)cc2C(F)(F)F)C[C@H](C)N1C [Example 566, N-[4-fluoro-5-(2-oxo-1,3-dihydropyrrolo[2,3-b]pyridin-5-yl)-2-[(3R,5S)-3,4,5-trimethylpiperazin-1-yl]phenyl]-6-oxo-4-(trifluoromethyl)-1H-pyridine-3-carboxamide]
7 | 1.18 | C[C@@H]1CN(c2cc(F)c(-c3ccn(C)c(=O)c3)cc2NC(=O)c2c[nH]c(=O)cc2C(F)(F)F)C[C@H](C)N1C [Example 567, N-[4-fluoro-5-(1-methyl-2-oxopyridin-4-yl)-2-[(3R,5S)-3,4,5-trimethylpiperazin-1-yl]phenyl]-6-oxo-4-(trifluoromethyl)-1H-pyridine-3-carboxamide]
8 | 4.58 | C[C@@H]1CN(c2cc(F)c(-c3ccc(=O)n(C)c3)cc2NC(=O)c2c[nH]c(=O)cc2C(F)(F)F)C[C@H](C)N1C [Example 568, N-[4-fluoro-5-(1-methyl-6-oxopyridin-3-yl)-2-[(3R,5S)-3,4,5-trimethylpiperazin-1-yl]phenyl]-6-oxo-4-(trifluoromethyl)-1H-pyridine-3-carboxamide]
9 | 1.99 | C[C@@H]1CN(c2cc(F)c(C3=CCN(C(=O)C4CCCCC4)CC3)cc2NC(=O)c2c[nH]c(=O)cc2C(F)(F)F)C[C@H](C)N1C [Example 569, N-[5-[1-(cyclohexanecarbonyl)-3,6-dihydro-2H-pyridin-4-yl]-4-fluoro-2-[(3R,5S)-3,4,5-trimethylpiperazin-1-yl]phenyl]-6-oxo-4-(trifluoromethyl)-1H-pyridine-3-carboxamide]
10 | 113 | COCCCN(C)C1CCN(c2cc(F)c(-c3cnc(N4CCOCC4)nc3)cc2NC(=O)c2c[nH]c(=O)cc2C(F)(F)F)C1 (stereo not shown) [Example 572, N-[4-fluoro-2-[3-[3-methoxypropyl(methyl)amino]pyrrolidin-1-yl]-5-(2-morpholin-4-ylpyrimidin-5-yl)phenyl]-6-oxo-4-(trifluoromethyl)-1H-pyridine-3-carboxamide]
11 | 2.19 | C[C@@H]1CN(c2cc(F)c(C3=CCN(C(=O)c4cnccn4)CC3)cc2NC(=O)c2c[nH]c(=O)cc2C(F)(F)F)C[C@H](C)N1C [Example 573, N-[4-fluoro-5-[1-(pyrazine-2-carbonyl)-3,6-dihydro-2H-pyridin-4-yl]-2-[(3R,5S)-3,4,5-trimethylpiperazin-1-yl]phenyl]-6-oxo-4-(trifluoromethyl)-1H-pyridine-3-carboxamide]
12 | 16.9 | COCCN(C)[C@@H]1CCN(c2cc(F)c(-c3cnc(N4CCOCC4)nc3)cc2NC(=O)c2c[nH]c(=O)cc2C(F)(F)F)C1 [Example 578, N-[4-fluoro-5-(2-morpholin-4-ylpyrimidin-5-yl)-2-[(3R)-3-[2-methoxyethyl(methyl)amino]pyrrolidin-1-yl]phenyl]-6-oxo-4-(trifluoromethyl)-1H-pyridine-3-carboxamide]
13 | 0.768 | C[C@@H]1CN(c2cc(F)c(-c3ccc(S(C)(=O)=O)nc3)cc2NC(=O)c2c[nH]c(=O)cc2C(F)(F)F)C[C@H](C)N1C [Example 581, N-[4-fluoro-5-(6-methylsulfonylpyridin-3-yl)-2-[(3R,5S)-3,4,5-trimethylpiperazin-1-yl]phenyl]-6-oxo-4-(trifluoromethyl)-1H-pyridine-3-carboxamide]
14 | 5.78 | C[C@@H]1CN(c2cc(F)c(-c3cnc(NS(C)(=O)=O)nc3)cc2NC(=O)c2c[nH]c(=O)cc2C(F)(F)F)C[C@H](C)N1C [Example 582, N-[4-fluoro-5-[2-(methanesulfonamido)pyrimidin-5-yl]-2-[(3R,5S)-3,4,5-trimethylpiperazin-1-yl]phenyl]-6-oxo-4-(trifluoromethyl)-1H-pyridine-3-carboxamide]
15 | 0.877 | C[C@@H]1CN(c2cc(F)c(C3=CCCN(c4ncc(C#N)cn4)C3)cc2NC(=O)c2c[nH]c(=O)cc2C(F)(F)F)C[C@H](C)N1C [Example 583, N-[5-[1-(5-cyanopyrimidin-2-yl)-3,6-dihydro-2H-pyridin-5-yl]-4-fluoro-2-[(3R,5S)-3,4,5-trimethylpiperazin-1-yl]phenyl]-6-oxo-4-(trifluoromethyl)-1H-pyridine-3-carboxamide]

Second part, the molecule before the results:

Row | Structure (SMILES) | Kd [nM]
16 | C[C@@H]1CN(c2ncc(-c3cc(NC(=O)c4ccc(F)cc4C(F)(F)F)c(N4C[C@@H](C)N(C)[C@@H](C)C4)cc3F)cn2)CCO1 [Example 545, 4-fluoro-N-[4-fluoro-5-[2-[(2R)-2-methylmorpholin-4-yl]pyrimidin-5-yl]-2-[(3R,5S)-3,4,5-trimethylpiperazin-1-yl]phenyl]-2-(trifluoromethyl)benzamide] | 3.4
17 | C[C@@H]1CN(c2cc(F)c(-c3cnc(N4CCNCC4)nc3)cc2NC(=O)c2ccc(F)cc2C(F)(F)F)C[C@H](C)N1C [Example 546, 4-fluoro-N-[4-fluoro-5-(2-piperazin-1-ylpyrimidin-5-yl)-2-[(3R,5S)-3,4,5-trimethylpiperazin-1-yl]phenyl]-2-(trifluoromethyl)benzamide] | 2.1
18 | C[C@@H]1CN(c2cc(F)c(-c3ccc(N4CCOCC4)nc3)cc2NC(=O)c2ccc(F)cc2C(F)(F)F)C[C@H](C)N1C [Example 547, 4-fluoro-N-[4-fluoro-5-(6-morpholin-4-ylpyridin-3-yl)-2-[(3R,5S)-3,4,5-trimethylpiperazin-1-yl]phenyl]-2-(trifluoromethyl)benzamide] | 1.5
19 | C[C@@H]1CN(c2cc(F)c(-c3ccc(N4CCNCC4)cc3)cc2NC(=O)c2c[nH]c(=O)cc2C(F)(F)F)C[C@H](C)N1C [Example 549, N-[4-fluoro-5-(4-piperazin-1-ylphenyl)-2-[(3R,5S)-3,4,5-trimethylpiperazin-1-yl]phenyl]-6-oxo-4-(trifluoromethyl)-1H-pyridine-3-carboxamide] | 0.8
20 | C[C@@H]1CN(c2cc(F)c(-c3ccc(F)c(C(N)=O)c3)cc2NC(=O)c2c[nH]c(=O)cc2C(F)(F)F)C[C@H](C)N1C [Example 550, N-[5-(3-carbamoyl-4-fluorophenyl)-4-fluoro-2-[(3R,5S)-3,4,5-trimethylpiperazin-1-yl]phenyl]-6-oxo-4-(trifluoromethyl)-1H-pyridine-3-carboxamide] | 2.5
21 | C[C@@H]1CN(c2cc(F)c(-c3ccc(C(N)=O)c(F)c3)cc2NC(=O)c2c[nH]c(=O)cc2C(F)(F)F)C[C@H](C)N1C [Example 551, N-[5-(4-carbamoyl-3-fluorophenyl)-4-fluoro-2-[(3R,5S)-3,4,5-trimethylpiperazin-1-yl]phenyl]-6-oxo-4-(trifluoromethyl)-1H-pyridine-3-carboxamide] | 0.6
22 | C[C@@H]1CN(c2cc(F)c(-c3ccc(F)c(C(N)=O)c3)cc2NC(=O)c2c[nH]c(=O)cc2C(F)F)C[C@H](C)N1C [Example 552, N-[5-(3-carbamoyl-4-fluorophenyl)-4-fluoro-2-[(3R,5S)-3,4,5-trimethylpiperazin-1-yl]phenyl]-4-(difluoromethyl)-6-oxo-1H-pyridine-3-carboxamide] | 3.1
23 | C[C@@H]1CN(c2cc(F)c(-c3ccc(C(N)=O)c(F)c3)cc2NC(=O)c2c[nH]c(=O)cc2C(F)F)C[C@H](C)N1C [Example 553, N-[5-(4-carbamoyl-3-fluorophenyl)-4-fluoro-2-[(3R,5S)-3,4,5-trimethylpiperazin-1-yl]phenyl]-4-(difluoromethyl)-6-oxo-1H-pyridine-3-carboxamide] | 1
24 | C[C@@H]1CN(c2cc(F)c(-c3ccc(F)c(C(N)=O)c3)cc2NC(=O)c2ccc(F)cc2C(F)(F)F)C[C@H](C)N1C [Example 556, 2-fluoro-5-[2-fluoro-5-[[4-fluoro-2-(trifluoromethyl)benzoyl]amino]-4-[(3R,5S)-3,4,5-trimethylpiperazin-1-yl]phenyl]benzamide] | 10.4
25 | C[C@@H]1CN(c2cc(F)c(-c3cnc(N4CCOC(C)(C)C4)nc3)cc2NC(=O)c2ccc(F)cc2C(F)(F)F)C[C@H](C)N1C [Example 559, N-[5-[2-(2,2-dimethylmorpholin-4-yl)pyrimidin-5-yl]-4-fluoro-2-[(3R,5S)-3,4,5-trimethylpiperazin-1-yl]phenyl]-4-fluoro-2-(trifluoromethyl)benzamide] | 2.92
